According to US6677488B2, “Substituted biphenyl compounds for the treatment of inflammation” (G.D. Searle & Co., priority 1995, dated 2004):

melting point | Structure (SMILES)
202 to 203 °C | NS(=O)(=O)c1ccc(-c2c(F)c(F)c(F)c(F)c2-c2ccc(F)cc2)cc1 [Example 15, 4-[2,3,4,5-Tetrafluoro-6-(4-fluorophenyl)phenyl]benzenesulfonamide]
141.5 to 142.8 °C | Cc1cc(-c2cc(F)c(F)cc2-c2ccc(S(N)(=O)=O)cc2)ccc1Cl [Example 36, 4-[2-(4-Chloro-3-methylphenyl)-4,5-difluorophenyl]benzenesulfonamide]
139 to 140 °C | Cc1ccc(-c2cc(F)c(F)cc2-c2ccc(S(N)(=O)=O)cc2)cc1Cl [Example 29, 4-[2-(3-Chloro-4-methylphenyl)-4,5-difluorophenyl]benzenesulfonamide]
160.5 to 161.5 °C | COc1ccc(-c2cc(F)c(F)cc2-c2ccc(S(C)(=O)=O)cc2)cc1C [Example 35, 1,2-Difluoro-4-(4-methoxy-3-methylpheny)-5-[4-(methylsulfonyl)phenyl]benzene]
120 to 121.8 °C | COc1ccc(-c2cc(F)c(F)cc2-c2ccc(S(N)(=O)=O)cc2)cc1C [Example 39, 4-[4,5-Difluoro-2-(4-methoxy-3-methylphenyl)phenyl]benzenesulfonamide]
132.8 to 133.9 °C | Cc1ccc(-c2cc(F)c(F)cc2-c2ccc(S(N)(=O)=O)cc2)cc1C [Example 37, 4-[4,5-Difluoro-2-(3,4-dimethylphenyl)phenyl]benzenesulfonamide]
145.5 to 146 °C | COc1c(Cl)cc(-c2cc(F)c(F)cc2-c2ccc(S(N)(=O)=O)cc2)cc1Cl [Example 38, 4-[2-(3,5-Dichloro-4-methoxyphenyl)-4,5-difluorophenyl]benzenesulfonamide]
107 to 108 °C | NS(=O)(=O)c1ccc(-c2cc(F)c(F)cc2-c2ccc3c(c2)OCCO3)cc1 [Example 43, 4-[2-(2,3-Dihydro-1,4-benzodioxin-6-yl)-4,5-difluorophenyl]benzenesulfonamide]
70 °C (dec.) | COc1ccc(-c2cc(F)c(F)cc2-c2ccc(S(N)(=O)=O)cc2)cc1Cl [Example 20, 4-[2-(3-Chloro-4-methoxyphenyl)-4,5-difluorophenyl]benzenesulfonamide]
193 to 194 °C | CN(C)c1ccc(-c2cc(F)c(F)cc2-c2ccc(S(N)(=O)=O)cc2)cc1Cl [Example 30, 4-[2-[3-Chloro-4-(N,N-dimethylamino)phenyl]-4,5-difluorophenyl]benzenesulfonamide]
147.5 to 148.5 °C | COc1ccc(-c2cc(F)c(F)cc2-c2ccc(S(C)(=O)=O)cc2)cc1Cl [Example 18, 1-(3-Chloro-4-methoxyphenyl)-4,5-difluoro-2-[4-(methylsulfonyl)phenyl]benzene]
159.2 to 159.7 °C | COc1ccc(-c2cc(F)c(F)cc2-c2ccc(S(C)(=O)=O)cc2)cc1F [Example 19, 1,2-Difluoro-4-(3-fluoro-4-methoxyphenyl)-5-[4-(methylsulfonyl)phenyl]benzene]
82 to 83 °C | CS(=O)(=O)c1ccc(-c2cc(F)c(F)cc2-c2ccc3c(c2)OCCO3)cc1 [Example 41]
172.2 to 172.5 °C | CS(=O)(=O)c1ccc(-c2cc(F)c(F)cc2-c2ccc(F)c(Cl)c2)cc1 [Example 14, 1-(3-Chloro-4-fluorophenyl)-4,5-difluoro-2-[4-(methylsulfonyl)phenyl]benzene]
157 to 158 °C | COc1ccc(-c2cc(F)c(F)cc2-c2ccc(S(N)(=O)=O)cc2)cc1OC [Example 42, 4-[4,5-Difluoro-2-(3,4-dimethoxyphenyl)phenyl]benzenesulfonamide]
178 to 179 °C | CS(=O)(=O)c1ccc(-c2ccccc2-c2ccc(F)cc2)cc1 [Example 1, 1-(4-Fluorophenyl)-2-[4-(methylsulfonyl)phenyl]benzene]

melting point | Structure (SMILES)
151.5 to 152.2 °C | Cc1cc(-c2cc(F)c(F)cc2-c2ccc(S(C)(=O)=O)cc2)ccc1Cl [Example 32, 4-(4-Chloro-3-methylphenyl)-1,2-difluoro-5-[4-(methylsulfonyl)phenyl]benzene]
192.5 to 193.2 °C | NS(=O)(=O)c1ccc(-c2ccccc2-c2ccc(F)c(Cl)c2)cc1 [Example 12, 4-[2-(3-Chloro-4-fluorophenyl)phenyl]benzenesulfonamide]
129 to 130 °C | CN(C)c1ccc(-c2cc(F)c(F)cc2-c2ccc(S(C)(=O)=O)cc2)cc1Cl [Example 28, 2-Chloro-4-[4,5-difluoro-2-[4-(methylsulfonyl)phenyl]phenyl]-N,N-dimethylbenzenamine]
172.8 to 173.5 °C | CS(=O)(=O)c1ccc(-c2cc(F)c(F)cc2-c2ccc(F)cc2)cc1 [Example 11, 1,2-Difluoro-4-(4-fluorophenyl)-5-[4-(methylsulfonyl)phenyl]benzene]
206.2 to 207 °C | NS(=O)(=O)c1ccc(-c2ccccc2-c2ccc(Cl)cc2)cc1 [Example 3, 4-[2-(4-Chlorophenyl)phenyl]benzenesulfonamide]
179.5 to 180.2 °C | COc1ccc(-c2ccccc2-c2ccc(S(N)(=O)=O)cc2)cc1Cl [Example 7, 4-[2-(3-Chloro-4-methoxyphenyl)phenyl]benzenesulfonamide]
187.5 to 187.8 °C | NS(=O)(=O)c1ccc(-c2ccccc2-c2ccc(C(F)(F)F)cc2)cc1 [Example 9, 4-[2-[4-(Trifluoromethyl)phenyl]phenyl]benzenesulfonamide]
125.1 to 125.8 °C | Cc1ccc(-c2cc(F)c(F)cc2-c2ccc(S(C)(=O)=O)cc2)cc1C [Example 33, 1,2-Difluoro-4-(3,4-dimethylphenyl)-5-[4-(methylsulfonyl)phenyl]benzene]
180.2 to 180.6 °C | CS(=O)(=O)c1ccc(-c2ccccc2-c2ccc(Cl)cc2)cc1 [Example 8, 1-(4-Chlorophenyl)-2-[4-(methylsulfonyl)phenyl]benzene]
136.2 to 136.6 °C | COc1ccc(-c2ccccc2-c2ccc(S(C)(=O)=O)cc2)cc1F [Example 4, 2-Fluoro-1-methoxy-4-[2-[4-(methylsulfonyl)phenyl]phenyl]benzene]
191 to 192.5 °C | NS(=O)(=O)c1ccc(-c2cc3c(cc2-c2ccc(F)cc2)OCO3)cc1 [Example 22, 4-[6-(4-Fluorophenyl)-1,3-benzodioxol-5-yl]benzenesulfonamide]
179.5 to 181.1 °C | CS(=O)(=O)c1ccc(-c2ccccc2-c2ccc(F)c(Cl)c2)cc1 [Example 10, 2-Chloro-1-fluoro-4-[2-[4-(methylsulfonyl)phenyl]phenyl]benzene]
143.5 to 145.5 °C (dec.) | COc1ccc(-c2ccccc2-c2ccc(S(N)(=O)=O)cc2)cc1F [Example 6, 4-[2-(3-Fluoro-4-methoxyphenyl)phenyl]benzenesulfonamide]
140 to 141 °C | COc1ccc(-c2cc(F)c(F)cc2-c2ccc(S(C)(=O)=O)cc2)cc1OC [Example 40, 1,2-Difluoro-4-(3,4-dimethoxypheny)-5-[4-(methylsulfonyl)phenyl]benzene]
138 to 139 °C | Cc1ccc(-c2cc(F)c(F)cc2-c2ccc(S(C)(=O)=O)cc2)cc1Cl [Example 27, 1-(3-Chloro-4-methylphenyl)-4,5-difluoro-2-[4-(methylsulfonyl)phenyl]benzene]
